Values after ≈ are worked out from the molar mass of the structure shown. Read-outs that look alike come from different tables or passages of the source.
Assays:
Type in all cases: cell-based
[1] = tested on: E. coli W3110PA; test: microbe, parasite or virus in culture; details: for MIC: Escherichia coli, W3110PA, 22 h, read-out: MIC E. coli W3110PA; for MIC E. coli W3110PA: E. coli with lpxC of P. aeruginosa, 22 hours at 37° C., MTT
[2] = tested on: E. coli W3110RL; test: microbe, parasite or virus in culture; details: for MIC: Escherichia coli, W3110RL, 22 h, read-out: MIC E. coli W3110RL; for MIC E. coli W3110RL: E. coli with lpxC of R. leguminosarum, 22 hours at 37° C., MTT
[3] = tested on: E. coli W3110; test: microbe, parasite or virus in culture; details: for MIC: Escherichia coli, W3110, 22 h, read-out: MIC E. coli W3110
[4] = tested on: P. aeruginosa (PAO1); test: MIC, P. aeruginosa; details: for MIC: Pseudomonas aeruginosa, read-out: MIC P. aeruginosa (PAO1)
[5] = P. aeruginosa PAO1, 22 hours at 37° C., MTT

SMILES | MIC [1] [µg/mL] | MIC [2] [µg/mL] | MIC [3] [µg/mL] | MIC ([4]; PAO1, 22 h) [µg/mL] | MIC E. coli W3110PA [1] | MIC E. coli W3110RL [2] | MIC E. coli W3110 [3] | MIC P. aeruginosa (PAO1) [4, 5] | MIC [4, 5] [µg/mL]
C[C@](O)(c1ccc(CO)cc1)[C@H](NC(=O)c1ccc(C#CC#Cc2ccc(N)cc2)cc1)C(=O)NO [CPD-062, 4-((4-aminophenyl)buta-1,3-diynyl)-N-((2S,3S)-3-hydroxy-1-(hydroxyamino)-3-(4-(hydroxymethyl)phenyl)-1-oxobutan-2-yl)benzamide] | < 1 | 51 to 100 (≈ 105 to 207 µM) | < 1 | 1 to 10 (≈ 2.07 to 20.7 µM) | – | – | – | – | –
Nc1ccc(C#CC#Cc2ccc(C(=O)N[C@H](C(=O)NO)[C@H](O)C(F)(F)F)cc2)cc1 [CPD-057, 4-((4-aminophenyl)buta-1,3-diynyl)-N-((2S,3S)-4,4,4-trifluoro-3-hydroxy-1-(hydroxyamino)-1-oxobutan-2-yl)benzamide] | < 1 | 51 to 100 (≈ 118 to 232 µM) | < 1 | < 1 | – | – | – | – | –
Nc1ccccc1C#CC#Cc1ccc(C(=O)N[C@@H](Cc2c[nH]cn2)C(=O)NO)cc1 [CPD-016, (2S)-2-({4′-[4′-(2′-aminophenyl)buta-1′,3′-diyn-1′-yl]phenyl}formamido)-N-hydroxy-3′-(1′H-imidazol-4′-yl)propanamide] | 51 to 100 (≈ 123 to 242 µM) | > 100 | 1 to 10 (≈ 2.42 to 24.2 µM) | > 100 | – | – | – | – | –
CC(C)[C@H](NC(=O)c1ccc(C#CC#Cc2ccc(N)cc2)cc1)C(=O)NO [CPD-022, (2S)-2-({4′-[4′-(4′-aminophenyl)buta-1′,3′-diyn-1′-yl]phenyl}formamido)-N-hydroxy-3-methylbutanamide] | – | – | – | – | A (<1 μg/mL) | D (51-100 μg/mL) | A (key: A: <1 μg/mL; B: 1-10 μg/mL; C: 11-50 μg/mL; D: 51-100 μg/mL; E: >100 μg/mL) | B (1-10 μg/mL) | –
Nc1ccc(C#CC#Cc2ccc(C(=O)N3CCC[C@H]3C(=O)NO)cc2)cc1 [CPD-031, (2S)-1-({4′-[4′-(4′-aminophenyl)buta-1′,3′-diyn-1-yl]phenyl}carbonyl)-N-hydroxypyrrolidine-2-carboxamide] | – | – | – | – | E (>100 μg/mL) | E (>100 μg/mL) | C (key: A: <1 μg/mL; B: 1-10 μg/mL; C: 11-50 μg/mL; D: 51-100 μg/mL; E: >100 μg/mL) | E (>100 μg/mL) | –
C[C@@H](O)[C@H](NC(=O)c1ccc(C#CC#Cc2ccc(N)cc2)cc1)C(=O)O [CPD-046, (2S,3R)-2-(4-((4-aminophenyl)buta-1,3-diynyl)benzamido)-3-hydroxybutanoic acid] | 51 to 100 (≈ 141 to 276 µM) | 51 to 100 (≈ 141 to 276 µM) | 1 to 10 (≈ 2.76 to 27.6 µM) | 51 to 100 (≈ 141 to 276 µM) | – | – | – | – | –
C[C@@H](O)[C@H](NC(=O)c1ccc(C#CC#Cc2ccccc2)cc1)C(=O)NO [CPD-009, N-((2S,3R)-3-hydroxy-1-(hydroxyamino)-1-oxobutan-2-yl)-4-(phenylbuta-1,3-diynyl)benzamide] | < 1 | 1 to 10 (≈ 2.76 to 27.6 µM) | < 1 | < 1 | – | – | – | – | –
C[C@@H](O)[C@H](NC(=O)c1ccc(C#Cc2ccccc2)cc1)C(=O)NO | < 1 | > 100 | < 1 | – | – | – | – | – | 1 to 10 (≈ 2.96 to 29.6 µM)
Nc1ccc(C#CC#Cc2ccc(C(=O)NCC(=O)NO)cc2)cc1 [CPD-024, 2-({4′-[4′-(4′-aminophenyl)buta-1′,3′-diyn-1′-yl]phenyl}formamido)-N-hydroxyacetamide] | – | – | – | – | C (11-50 μg/mL) | E (>100 μg/mL) | A (key: A: <1 μg/mL; B: 1-10 μg/mL; C: 11-50 μg/mL; D: 51-100 μg/mL; E: >100 μg/mL) | D (51-100 μg/mL) | –
C[C@H](O)[C@H](NC(=O)c1ccc(C#CC#Cc2ccc(N)cc2)cc1)C(=O)NO [CPD-053, (2S,3S)-2-{4′-[(4″-aminophenyl)buta-1′,3′-diynyl]benzamido}-1,3-dihydroxybutanamide] | < 1 | 51 to 100 (≈ 135 to 265 µM) | < 1 | < 1 | – | – | – | – | –
C[C@@H](O)[C@H](NC(=O)c1ccc(C#CC#Cc2ccc(N)cc2)cc1)C(N)=O [CPD-047, N-((2S,3R)-1-amino-3-hydroxy-1-oxobutan-2-yl)-4-((4-aminophenyl)buta-1,3-diynyl)benzamide] | 51 to 100 (≈ 141 to 277 µM) | 51 to 100 (≈ 141 to 277 µM) | 1 to 10 (≈ 2.77 to 27.7 µM) | 51 to 100 (≈ 141 to 277 µM) | – | – | – | – | –
Nc1ccc(C#CC#Cc2ccc(C(=O)N[C@H](C(=O)NO)[C@@H](O)c3ccc(O)cc3)cc2)cc1 [CPD-050, 4-((4-aminophenyl)buta-1,3-diynyl)-N-((1S,2S)-1-hydroxy-3-(hydroxyamino)-1-(4-hydroxyphenyl)-3-oxopropan-2-yl)benzamide] | < 1 | 11 to 50 (≈ 24.2 to 110 µM) | < 1 | 1 to 10 (≈ 2.2 to 22 µM) | – | – | – | – | –
C[C@@H](O)[C@H](NC(=O)c1ccc(C#CC#Cc2ccc(N)nc2)cc1)C(=O)NO [CPD-035, (2S,3R)-2-{4′-[[(2″-amino)pyridin-5″-yl]buta-1′,3′-diynyl]benzamido}-1,3-dihydroxybutanamide] | – | – | – | – | B (1-10 μg/mL) | C (11-50 μg/mL) | A (key: A: <1 μg/mL; B: 1-10 μg/mL; C: 11-50 μg/mL; D: 51-100 μg/mL; E: >100 μg/mL) | A (<1 μg/mL) | –
CC[C@@H](C)[C@H](NC(=O)c1ccc(C#CC#Cc2ccc(N)cc2)cc1)C(=O)NO [CPD-023, (2S,3R)-2-({4′-[4′-(4′-aminophenyl)buta-1′,3′-diyn-1-yl]phenyl}formamido)-N-hydroxy-3-methylpentanamide] | – | – | – | – | B (1-10 μg/mL) | C (11-50 μg/mL) | A (key: A: <1 μg/mL; B: 1-10 μg/mL; C: 11-50 μg/mL; D: 51-100 μg/mL; E: >100 μg/mL) | D (51-100 μg/mL) | –
C[C@H](NC(=O)c1ccc(C#CC#Cc2ccc(N)cc2)cc1)C(=O)NO [CPD-020, (2S)-2-({4′-[4′-(4′-aminophenyl)buta-1′,3′-diyn-1′-yl]phenyl}formamido)-N-hydroxypropanamide] | – | – | – | – | B (1-10 μg/mL) | B (1-10 μg/mL) | A (key: A: <1 μg/mL; B: 1-10 μg/mL; C: 11-50 μg/mL; D: 51-100 μg/mL; E: >100 μg/mL) | C (11-50 μg/mL) | –
CC(C)(C)OC(=O)CC[C@H](NC(=O)c1ccc(C#CC#Cc2ccc(N)cc2)cc1)C(=O)NO [CPD-017, Tert-butyl (4S)-4-({4′-[4′-(4′-aminophenyl)buta-1′,3′-diyn-1′-yl]phenyl}formamido)-4-(hydroxycarbamoyl)butanoate] | – | – | – | – | E (>100 μg/mL) | E (>100 μg/mL) | C (key: A: <1 μg/mL; B: 1-10 μg/mL; C: 11-50 μg/mL; D: 51-100 μg/mL; E: >100 μg/mL) | E (>100 μg/mL) | –
C[C@@H](O)[C@H](NC(=O)c1ccc(C#CC#CCN(C)C)cc1)C(=O)NO [CPD-007, 4-(5-(dimethylamino)penta-1,3-diynyl)-N-((2S,3R)-3-hydroxy-1-(hydroxyamino)-1-oxobutan-2-yl)benzamide] | 1 to 10 (≈ 2.91 to 29.1 µM) | > 100 | 1 to 10 (≈ 2.91 to 29.1 µM) | 1 to 10 (≈ 2.91 to 29.1 µM) | – | – | – | – | –
C[C@@H](O)[C@H](NC(=O)c1ccc(C#CC#Cc2cnc(N)nc2)cc1)C(=O)NO [CPD-036, (2S,3R)-2-{4′-[[(2″-amino)pyrimidin-5″-yl]buta-1′,3′-diynyl]benzamido}-1,3-dihydroxybutanamide] | – | – | – | – | B (1-10 μg/mL) | E (>100 μg/mL) | B (key: A: <1 μg/mL; B: 1-10 μg/mL; C: 11-50 μg/mL; D: 51-100 μg/mL; E: >100 μg/mL) | A (<1 μg/mL) | –

Source: US9738604B2, “Ethynylbenzene derivatives” (Duke University, priority 2010, dated 2017)
